Data from ChEMBL document CHEMBL2390858, “Design, synthesis and anti-tuberculosis activity of 1-adamantyl-3-heteroaryl ureas with improved in vitro pharmacokinetic properties” (Bioorg Med Chem, 2013).
pIC50: −log10 of the molar value. Values after ≈ are worked out from the molar mass of the structure shown.

Key:
Bacillus anthracis = test: microbe, parasite or virus in culture; conditions: Sterne
Klebsiella pneumoniae = test: microbe, parasite or virus in culture
Enterococcus faecalis = test: microbe, parasite or virus in culture
Escherichia coli = test: microbe, parasite or virus in culture; conditions: K-12
[1] = biological target: T1, Bifunctional epoxide hydrolase 2 (Homo sapiens, UniProt P34913)
T1 sequence (P34913 whole entry): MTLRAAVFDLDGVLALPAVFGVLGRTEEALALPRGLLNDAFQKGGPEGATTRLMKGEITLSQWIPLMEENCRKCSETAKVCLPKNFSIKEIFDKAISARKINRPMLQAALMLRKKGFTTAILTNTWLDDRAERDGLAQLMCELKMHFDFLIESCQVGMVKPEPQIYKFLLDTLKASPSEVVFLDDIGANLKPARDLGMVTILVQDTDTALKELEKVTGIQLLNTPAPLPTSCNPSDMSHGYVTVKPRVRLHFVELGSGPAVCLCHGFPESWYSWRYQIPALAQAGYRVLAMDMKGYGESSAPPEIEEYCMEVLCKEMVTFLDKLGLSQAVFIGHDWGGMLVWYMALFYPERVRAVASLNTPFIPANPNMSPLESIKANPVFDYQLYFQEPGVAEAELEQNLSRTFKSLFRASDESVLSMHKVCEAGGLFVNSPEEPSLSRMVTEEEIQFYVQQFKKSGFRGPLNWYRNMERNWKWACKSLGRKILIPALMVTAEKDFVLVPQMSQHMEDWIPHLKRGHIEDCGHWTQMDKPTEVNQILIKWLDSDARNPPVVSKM

Proteus vulgaris = test: microbe, parasite or virus in culture
Acinetobacter = test: microbe, parasite or virus in culture
Streptococcus pyogenes = test: microbe, parasite or virus in culture
[2] = buffer, 18 h, pH 7.4
Streptococcus pneumoniae = test: microbe, parasite or virus in culture
Staphylococcus aureus [3] = test: microbe, parasite or virus in culture; conditions: ATCC 29213
[4] = system: Mycobacterium tuberculosis; test: microbe, parasite or virus in culture; conditions: H37Rv, 168 h
Burkholderia cepacia = test: microbe, parasite or virus in culture
Proteus mirabilis = test: microbe, parasite or virus in culture
Bacillus subtilis = test: microbe, parasite or virus in culture
Pseudomonas aeruginosa = test: microbe, parasite or virus in culture
Staphylococcus aureus [5] = test: microbe, parasite or virus in culture; conditions: NRS70

Compound | MIC (Bacillus anthracis) | MIC (Klebsiella pneumoniae) | MIC (Enterococcus faecalis) | MIC (Escherichia coli) | pIC50 [1] | MIC (Proteus vulgaris) | MIC (Acinetobacter) | MIC (Streptococcus pyogenes) | solubility [2] | MIC (Streptococcus pneumoniae) | MIC (Staphylococcus aureus [3]) | MIC [4] | MIC (Burkholderia cepacia) | MIC (Proteus mirabilis) | MIC (Bacillus subtilis) | MIC (Pseudomonas aeruginosa) | MIC (Staphylococcus aureus [5])
O=C(Nc1ncco1)NC1C2CC3CC(C2)CC1C3 (stereo not drawn) | > 200 µg/mL | > 200 µg/mL | > 200 µg/mL | > 200 µg/mL | 7.34 | > 200 µg/mL | > 200 µg/mL | > 200 µg/mL | 14.9 µg/mL (≈ 57 µM) | > 200 µg/mL | > 200 µg/mL | 12.5 µg/mL (≈ 47.8 µM) | 6.25 µg/mL (≈ 23.9 µM) | > 200 µg/mL | > 200 µg/mL | > 200 µg/mL | 200 µg/mL (≈ 765 µM)
CCn1ccc(NC(=O)NC23CC4CC(CC(C4)C2)C3)n1 | 100 µg/mL (≈ 347 µM) | > 200 µg/mL | > 200 µg/mL | > 200 µg/mL | 6.05 | > 200 µg/mL | > 200 µg/mL | 0.78 µg/mL (≈ 2.7 µM) | 10.5 µg/mL (≈ 36.4 µM) | 200 µg/mL (≈ 693 µM) | > 200 µg/mL | 25 µg/mL (≈ 86.7 µM) | > 200 µg/mL | > 200 µg/mL | 200 µg/mL (≈ 693 µM) | > 200 µg/mL | 200 µg/mL (≈ 693 µM)
Cc1onc(NC(=O)NC23CC4CC(CC(C4)C2)C3)c1Br | > 200 µg/mL | > 200 µg/mL | – | 50 µg/mL (≈ 141 µM) | 9.10 | > 200 µg/mL | > 200 µg/mL | > 200 µg/mL | 0.1 µg/mL (≈ 0.282 µM) | > 200 µg/mL | 50 µg/mL (≈ 141 µM) | 100 µg/mL (≈ 282 µM) | – | > 200 µg/mL | > 200 µg/mL | > 200 µg/mL | 200 µg/mL (≈ 565 µM)
Cc1cc(NC(=O)NC23CC4CC(CC(C4)C2)C3)on1 | > 200 µg/mL | > 200 µg/mL | 100 µg/mL (≈ 363 µM) | 200 µg/mL (≈ 726 µM) | 6.93 | > 200 µg/mL | > 200 µg/mL | > 200 µg/mL | 5.5 µg/mL (≈ 20 µM) | > 200 µg/mL | 200 µg/mL (≈ 726 µM) | 12.5 µg/mL (≈ 45.4 µM) | 100 µg/mL (≈ 363 µM) | > 200 µg/mL | > 200 µg/mL | > 200 µg/mL | > 200 µg/mL
O=C(Nc1nnc(-c2cccs2)o1)NC12CC3CC(CC(C3)C1)C2 | > 200 µg/mL | > 200 µg/mL | – | > 200 µg/mL | 5.80 | > 200 µg/mL | > 200 µg/mL | > 200 µg/mL | 2.2 µg/mL (≈ 6.39 µM) | > 200 µg/mL | > 200 µg/mL | 100 µg/mL (≈ 290 µM) | > 200 µg/mL | > 200 µg/mL | > 200 µg/mL | > 200 µg/mL | > 200 µg/mL
Cc1noc(NC(=O)NC23CC4CC(CC(C4)C2)C3)c1C | – | > 200 µg/mL | > 200 µg/mL | > 200 µg/mL | 7.70 | > 200 µg/mL | – | > 200 µg/mL | 5.7 µg/mL (≈ 19.7 µM) | > 200 µg/mL | > 200 µg/mL | 100 µg/mL (≈ 346 µM) | > 200 µg/mL | > 200 µg/mL | > 200 µg/mL | > 200 µg/mL | > 200 µg/mL
Cc1noc(NC(=O)NC23CC4CC(CC(C4)C2)C3)c1Cl | – | > 200 µg/mL | > 200 µg/mL | > 200 µg/mL | 9.30 | > 200 µg/mL | – | > 200 µg/mL | 1.5 µg/mL (≈ 4.84 µM) | > 200 µg/mL | > 200 µg/mL | 100 µg/mL (≈ 323 µM) | > 200 µg/mL | > 200 µg/mL | > 200 µg/mL | > 200 µg/mL | > 200 µg/mL
O=C(Nc1ccc(S(=O)(=O)Nc2ccc(Cl)nn2)cc1)NC12CC3CC(CC(C3)C1)C2 | 1.56 µg/mL (≈ 3.38 µM) | > 200 µg/mL | 100 µg/mL (≈ 216 µM) | > 200 µg/mL | 7.72 | > 200 µg/mL | > 200 µg/mL | > 200 µg/mL | 20.7 µg/mL (≈ 44.8 µM) | 100 µg/mL (≈ 216 µM) | 50 µg/mL (≈ 108 µM) | – | 100 µg/mL (≈ 216 µM) | 100 µg/mL (≈ 216 µM) | > 200 µg/mL | > 200 µg/mL | –
O=C(Nc1ccccn1)NC12CC3CC(CC(C3)C1)C2 | > 200 µg/mL | > 200 µg/mL | – | > 200 µg/mL | 5.82 | > 200 µg/mL | > 200 µg/mL | > 200 µg/mL | 1.4 µg/mL (≈ 5.16 µM) | > 200 µg/mL | – | – | – | > 200 µg/mL | – | > 200 µg/mL | –
